“And” between values parts separate entries of the source, which are not always exact repeats. Equal entries are not always repeated.
Tested on: β-toxin production by Clostridium perfringens
Assay type: cell-based
Parameters: mean total toxin production: unit not given here

Substance	toxin per cell	also measured
LADTF: pentapeptide	increased toxin per cell above the mean	–
FSLLE: pentapeptide	–	mean total toxin production: 8.855
ESLQM: pentapeptide	increased toxin per cell above the mean	–
SNGIY: pentapeptide	increased toxin per cell above the mean	–
ETVNF: pentapeptide	increased toxin per cell above the mean	–
FEFVG: pentapeptide	–	amount of toxin produced per cell: doubled; mean total toxin production: 8.79 and 8.787; total toxin in the two-point ELISA over optimized base medium alone: about 2.2 ×; total toxin produced by the culture: near doubling
PELME: pentapeptide	increased toxin per cell above the mean	–
EKALE: pentapeptide	increased toxin per cell above the mean	–
NLTEL: pentapeptide	–	mean total toxin production: 8.321
PLFEQ: pentapeptide	increased toxin per cell above the mean	–
FDIST: pentapeptide	–	mean total toxin production: 8.395
DMLQT: pentapeptide	increased toxin per cell above the mean	–
NQLEV: pentapeptide	–	mean total toxin production: 7.81
NEGLG: pentapeptide	increased toxin per cell above the mean	–
VEFTN: pentapeptide	increased toxin per cell above the mean	–
MHAPP: pentapeptide	increased toxin per cell above the mean	–
LSAL: tetrapeptide	–	toxin production: significantly inhibited toxin production
QNDVY: pentapeptide	increased toxin per cell above the mean	beta toxin accumulation in the culture supernatant: enhance beta toxin accumulation
MPNNF: pentapeptide	increased toxin per cell above the mean	–
GGMPG: pentapeptide	increased toxin per cell above the mean	–
VNVQA: pentapeptide	increased toxin per cell above the mean	–
VHVYQ: pentapeptide	–	toxin production: toxin production above the mean obtained in 0.5% hydrolysate media
YENLY: pentapeptide	increased toxin per cell above the mean	–
HTVEL: pentapeptide	increased toxin per cell above the mean	beta toxin accumulation in the culture supernatant: enhance beta toxin accumulation
ELSPH: pentapeptide	increased toxin per cell above the mean	–
KFIEK: pentapeptide	increased toxin per cell above the mean	–
DKAL: tetrapeptide	–	total toxin ratio (total toxin with test peptide divided by base media total toxin): increased the total toxin ratio
GYPEV: pentapeptide	increased toxin per cell above the mean	–

Substance	toxin per cell	also measured
DKTNG: pentapeptide	increased toxin per cell above the mean	–
NNNNN: pentapeptide	–	toxin production: toxin production above the mean obtained in 0.5% hydrolysate media
HAPAY: pentapeptide	increased toxin per cell above the mean	–
SVMEM: pentapeptide	increased toxin per cell above the mean	–
MMELE: pentapeptide	increased toxin per cell above the mean	–
SYIME: pentapeptide	increased toxin per cell above the mean	–
LSFIE: pentapeptide	increased toxin per cell above the mean	–
KTVGI: pentapeptide	increased toxin per cell above the mean	–
FEFGV: pentapeptide	increased toxin per cell above the mean	–
KFIFE: pentapeptide	increased toxin per cell above the mean	–
GDYVS: pentapeptide	increased toxin per cell above the mean	–
FVPEK: pentapeptide	increased toxin per cell above the mean	–
YEYIY: pentapeptide	increased toxin per cell above the mean	–
LPDLF: pentapeptide	increased toxin per cell above the mean	–
TKPFF: pentapeptide	increased toxin per cell above the mean	–
ETLNL: pentapeptide	–	mean total toxin production: 8.28
VDLLG: pentapeptide	increased toxin per cell above the mean	–
YEQQN: pentapeptide	increased toxin per cell above the mean	–
ALFHE: pentapeptide	increased toxin per cell above the mean	–
KPLDV: pentapeptide	increased toxin per cell above the mean	–
NEYLY: pentapeptide	–	mean total toxin production: 8.665
DTHHI: pentapeptide	increased toxin per cell above the mean	–
IKLAS: pentapeptide	–	mean total toxin production: 7.7475
YEYIG: pentapeptide	–	total toxin mean value: greater than twice that obtained using 3.5% hydrolysate alone
FSFVE: pentapeptide	–	mean total toxin production: 8.727
SQLEL: pentapeptide	–	mean total toxin production: 8.284
FMSTA: pentapeptide	increased toxin per cell above the mean	–

Reference: patent US7267983B2 (priority 2000, dated 2007)
